Biological target: LAT1 (Homo sapiens, UniProt Q01650)
Assay: radiolabelled uptake in Xenopus oocytes
Assay type: cell-based
Details: Na+-free uptake buffer (choline-Cl), pH 7.5, room temperature, 15 min; labelled compound

Sequence of LAT1 (Q01650 whole entry): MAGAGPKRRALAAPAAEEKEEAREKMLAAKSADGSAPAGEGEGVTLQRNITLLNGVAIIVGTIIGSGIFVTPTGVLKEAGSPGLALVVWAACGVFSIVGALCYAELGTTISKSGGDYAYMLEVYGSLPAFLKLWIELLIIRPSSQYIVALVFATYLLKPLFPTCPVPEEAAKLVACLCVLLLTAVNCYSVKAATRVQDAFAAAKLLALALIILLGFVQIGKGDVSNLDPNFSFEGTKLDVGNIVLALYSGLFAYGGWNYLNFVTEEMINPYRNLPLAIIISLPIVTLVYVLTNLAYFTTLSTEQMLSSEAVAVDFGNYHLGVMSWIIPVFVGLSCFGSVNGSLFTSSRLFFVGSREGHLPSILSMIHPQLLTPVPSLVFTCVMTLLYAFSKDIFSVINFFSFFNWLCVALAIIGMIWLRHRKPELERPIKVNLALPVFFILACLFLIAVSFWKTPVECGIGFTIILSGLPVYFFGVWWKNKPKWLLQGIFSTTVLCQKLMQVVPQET
Sequence of LAT1 (P08195 103-630 partner): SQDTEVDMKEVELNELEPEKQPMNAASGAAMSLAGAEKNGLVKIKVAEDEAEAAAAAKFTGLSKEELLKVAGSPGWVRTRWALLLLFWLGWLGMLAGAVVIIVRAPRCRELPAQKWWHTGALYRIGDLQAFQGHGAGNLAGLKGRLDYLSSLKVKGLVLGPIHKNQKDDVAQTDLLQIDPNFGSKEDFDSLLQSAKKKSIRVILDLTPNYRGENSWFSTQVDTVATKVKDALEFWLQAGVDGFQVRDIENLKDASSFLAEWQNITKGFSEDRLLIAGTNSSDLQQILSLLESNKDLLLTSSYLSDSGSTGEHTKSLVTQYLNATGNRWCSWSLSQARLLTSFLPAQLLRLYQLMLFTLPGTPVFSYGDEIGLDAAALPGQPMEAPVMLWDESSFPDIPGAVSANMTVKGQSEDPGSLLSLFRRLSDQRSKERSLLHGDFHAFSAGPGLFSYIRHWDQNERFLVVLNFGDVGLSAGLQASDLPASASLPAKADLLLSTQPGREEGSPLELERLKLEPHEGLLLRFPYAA

- Km: 72.7 ± 11 µM
SMILES: C[C@](N)(Cc1ccc(O)c(F)c1)C(=O)O [FAMT, 3‐fluoro‐L‐α‐methyl[carboxyl‐^14C]tyrosine]
